The subject of the assay is protein synthesis in E. coli S30 extract. It is filed as biochemical, Escherichia coli. Conditions: read-out: IC50, inhibition of firefly luciferase synthesis, 37°C, 30 min, luciferase activity, three independent measurements.

Regarding `CC[C@H]1OC(=O)[C@H](C)[C@@H](O[C@H]2C[C@@](C)(OC)[C@@H](O)[C@H](C)O2)[C@H](C)[C@@H](O[C@@H]2O[C@H](C)C[C@H](N(C)C)[C@H]2O)[C@](C)(O)C[C@@H](C)[C@@H]2N[C@@H](COCCOC)O[C@H]([C@H]2C)[C@]1(C)O` [DIR, dirithromycin], the IC50 stood at 190 ± 20 nM.
To `CC[C@H]1OC(=O)[C@H](C)[C@@H](O[C@H]2C[C@@](C)(OC)[C@@H](O)[C@H](C)O2)[C@H](C)[C@@H](O[C@@H]2O[C@H](C)C[C@H](N(C)C)[C@H]2O)[C@](C)(O)C[C@@H](C)C(=O)[C@H](C)[C@@H](O)[C@]1(C)O` [ERY, erythromycin] belongs 320 ± 20 nM.

For the origin of these results see publication PMC7266154 (RNA, 2020).
